Laboratory results reported in paper PMC13429874, “ABHD2 activity is not required for the non-genomic action of progesterone on human sperm” (Human Reproduction (Oxford, England), 2026).
Read-outs that look alike come from different tables or passages of the source.

Assays:
[1] = target: T1, full-length human ABHD2 (ABHD2^FL) (Homo sapiens, UniProt P08910); experiment: ABHD2^FL enzymatic activity assay with 7-HCA substrate; format: biochemical
T1 construct: TEV site-eGFP-8xHis (C, cleaved yes); made in house; host or cells: SF9 insect cells (baculovirus)
T1 sequence (P08910 1-425): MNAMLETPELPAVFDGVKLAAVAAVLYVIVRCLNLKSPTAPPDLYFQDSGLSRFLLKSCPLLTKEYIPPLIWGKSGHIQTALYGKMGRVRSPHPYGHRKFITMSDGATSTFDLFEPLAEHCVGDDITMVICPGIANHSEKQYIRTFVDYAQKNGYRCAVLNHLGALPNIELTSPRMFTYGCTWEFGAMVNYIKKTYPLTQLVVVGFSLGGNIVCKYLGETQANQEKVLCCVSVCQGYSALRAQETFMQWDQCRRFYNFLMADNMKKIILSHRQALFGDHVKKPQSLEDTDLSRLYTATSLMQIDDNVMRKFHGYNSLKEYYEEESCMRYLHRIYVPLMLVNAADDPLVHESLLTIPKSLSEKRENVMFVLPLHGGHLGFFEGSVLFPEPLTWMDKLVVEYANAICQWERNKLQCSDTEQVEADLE

[2] = target: T2, ABHD2^L33–E425 (Homo sapiens, UniProt P08910); experiment: ABHD2^L33-E425 fluorometric enzymatic activity assay with 7-HCA substrate; format: biochemical
T2 construct: expression for ABHD2 amino acids L33–E425, in which a predicted transmembrane domain (amino acids 1–32) is removed; His6-FLAG (N); made in house; host or cells: E. coli BL21(DE3)-R3-pRARE2
T2 sequence (P08910 33-425): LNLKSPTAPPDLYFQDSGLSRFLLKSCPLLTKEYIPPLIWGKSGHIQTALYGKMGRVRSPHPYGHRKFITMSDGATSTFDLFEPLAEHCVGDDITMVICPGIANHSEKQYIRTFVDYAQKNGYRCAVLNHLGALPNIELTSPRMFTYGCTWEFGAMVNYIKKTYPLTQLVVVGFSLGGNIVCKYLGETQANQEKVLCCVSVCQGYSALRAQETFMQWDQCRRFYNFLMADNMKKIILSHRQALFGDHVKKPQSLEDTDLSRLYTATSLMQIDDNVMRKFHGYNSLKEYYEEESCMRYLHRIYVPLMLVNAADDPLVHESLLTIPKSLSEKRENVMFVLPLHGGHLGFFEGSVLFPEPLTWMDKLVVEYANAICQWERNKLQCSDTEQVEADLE

[3] = target: T2, ABHD2^L33–E425; experiment: Differential scanning fluorimetry (DSF) with purified ABHD2^L33–E425; format: binding; details: 40 µM steroid, 30 min pre-incubation
[4] = system: CatSper; details: cited from earlier work
[5] = 7-HCA and RB substrates (Suppl. Fig. S4A,B), weak effects at ≥5 µM
[6] = 5 µM steroid or triterpenoid, 300 nM 7-HCA

| Compound | effect on heat-induced denaturation of ABHD2^L33–E425 (DSF binding) [3] | effect on enzymatic activity of purified ABHD2^L33–E425 [2, 6] | effect on enzymatic activity of purified ABHD2^FL [1] | effect on enzymatic activity of purified ABHD2^L33–E425 [2] | other results |
| --- | --- | --- | --- | --- | --- |
| CCCCC/C=C\C/C=C\C/C=C\C/C=C\CCCC(=O)Oc1ccc2ccc(=O)oc2c1 [Compound 7-HCA, 7-hydroxycoumarinyl arachidonate] |  |  |  |  | Km ([1]; read-out: Km of substrate hydrolysis by ABHD2^FL): 59 µM; kcat of substrate hydrolysis by ABHD2^L33–E425 [2]: 2.8 pmol substrate/min/pmol enzyme; Km ([2]; read-out: Km of substrate hydrolysis by ABHD2^L33–E425): 0.28 µM |
| CC(C)CCC[C@@H](C)[C@H]1CC[C@H]2[C@@H]3CC=C4C[C@@H](O)CC[C@]4(C)[C@H]3CC[C@]12C [cholesterol] | did not affect | did not alter |  |  | effect on enzymatic activity of purified ABHD2^FL [1, 5]: did not alter |
| C[C@]12CCC(=O)C=C1CC[C@@H]1[C@@H]2[C@@H](O)C[C@@]2(C)[C@H]1CC[C@]2(O)C(=O)CO [hydrocortisone] | did not affect | did not alter |  |  | effect on enzymatic activity of purified ABHD2^FL [1, 5]: did not alter |
| C=C(C)[C@@H]1CC[C@]2(C)CC[C@]3(C)[C@H](CC[C@@H]4[C@@]5(C)CC[C@H](O)C(C)(C)[C@@H]5CC[C@]43C)[C@@H]12 [lupeol] | did not affect | weak inhibitory action |  |  | progesterone-induced CatSper activation ([4]; ref Brenker et al., 2018, Rehfeld, 2020, Rehfeld and Marcus Pedersen, 2022): do not interfere; progesterone-induced Ca2+ influx and hyperactivation ([4]; ref Mannowetz et al., 2017): inhibitors |
| COC(=O)[C@]1(C)CC[C@]2(C)CC[C@]3(C)C4=CC=C5C(=CC(=O)C(O)=C5C)[C@]4(C)CC[C@@]3(C)[C@@H]2C1 [pristimerin] |  |  | did not affect | did not affect | progesterone-induced Ca2+ influx and hyperactivation [4]: inhibitors; progesterone-induced CatSper activation [4]: do not interfere |
| C[C@]12CC[C@H]3[C@@H](CCC4=CC(=O)CC[C@@]43C)[C@@H]1CC[C@@H]2O [testosterone] | did not affect |  | did not alter | did not alter |  |
| pregnenolone sulfate | did not affect |  | weak inhibitory action | but not on ABHD2^L33–E425 |  |
